Measured values from PubChem BioAssay (NCI).
“And” between values parts separate entries of the source, which are not always exact repeats. Identical values can stand only once.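 Where inhibition never reached the appropriate level, the endpoint shown equals the highest concentration tested. Otherwise, values were interpolated linearly from a five-concentration, 48-hour dose response in 96-well plates. GI50 is the concentration that inhibits growth by half. TGI denotes the concentration required for complete inhibition of growth.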

Experiments:
Test in all cases: NCI-60 cell line screen, 48 h
CAKI-1 renal = tested on: CAKI-1 renal
CCRF-CEM leukemia = tested on: CCRF-CEM leukemia
SN12C renal = tested on: SN12C renal
MALME-3M melanoma = tested on: MALME-3M melanoma
OVCAR-3 ovarian = tested on: OVCAR-3 ovarian
SNB-19 CNS = tested on: SNB-19 CNS
HOP-92 NSCLC = tested on: HOP-92 NSCLC
SNB-75 CNS = tested on: SNB-75 CNS
EKVX NSCLC = tested on: EKVX NSCLC
LOX IMVI melanoma = tested on: LOX IMVI melanoma
SF-539 CNS = tested on: SF-539 CNS
HCT-116 colon = tested on: HCT-116 colon

Structure (SMILES)	TGI (CAKI-1 renal)	TGI (CCRF-CEM leukemia)	TGI (SN12C renal)	TGI (MALME-3M melanoma)	TGI (OVCAR-3 ovarian)	TGI (SNB-19 CNS)	TGI (HOP-92 NSCLC)	TGI (SNB-75 CNS)	TGI (EKVX NSCLC)	TGI (LOX IMVI melanoma)	TGI (SF-539 CNS)	TGI (HCT-116 colon)	GI50 (CCRF-CEM leukemia)	GI50 (MALME-3M melanoma)	GI50 (OVCAR-3 ovarian)	GI50 (HOP-92 NSCLC)	GI50 (SNB-75 CNS)	GI50 (EKVX NSCLC)	GI50 (LOX IMVI melanoma)	GI50 (HCT-116 colon)
C=CCn1c(=O)c(Br)nn(CCOCP(=O)(OCC)OCC)c1=O	> 100 µM	> 100 µM	> 100 µM	> 100 µM	> 100 µM	> 100 µM	> 100 µM	> 100 µM	> 100 µM	> 100 µM	> 100 µM	–	–	–	–	–	–	–	–	–
Nc1nc(SCCNC(=O)CCc2ccc(O)c(I)c2)nc2c1ncn2C1OC(CO)C(O)C1O (stereo not given)	–	> 100 µM	> 100 µM	> 100 µM	> 100 µM	> 100 µM	> 100 µM	> 100 µM	> 100 µM	–	> 100 µM	> 100 µM	–	–	–	–	–	–	–	–
CC(=O)OCC1=CC2OC(=O)C3=COC(OC4OC(CO)C(O)C(O)C4O)C1C32 (stereo not given)	> 100 µM	> 100 µM	> 100 µM	–	> 100 µM	> 100 µM	> 100 µM	> 100 µM	> 100 µM	> 100 µM	> 100 µM	> 100 µM	–	–	–	–	–	–	–	–
N#Cc1ccc([N+](=O)[O-])cc1NC(N)=S	> 100 µM	–	> 100 µM	> 100 µM	> 100 µM	> 100 µM	> 100 µM	> 100 µM	> 100 µM	–	> 100 µM	> 100 µM	–	–	–	–	–	–	–	–
CC[C@@]1(O)C[C@H](OC2CC(N(C)C)C(OC3CC(O)C(OC4CCC(=O)C(C)O4)C(C)O3)C(C)O2)c2c(cc3c(c2O)C(=O)c2c(O)cccc2C3=O)C1C(=O)OC (stereo not given in full)	4.09 µM	0.116 µM and 1.02 µM	–	0.0948 µM and 0.569 µM	0.23 µM and 1.96 µM	–	0.0897 µM	–	3.02 µM and 1.35 µM	–	–	–	–	–	–	–	–	–	–	–
CC(C)CNCCc1ccccn1	> 100 µM	> 100 µM	> 100 µM	> 100 µM	> 100 µM	> 100 µM	> 100 µM	> 100 µM	> 100 µM	> 100 µM	–	> 100 µM	–	–	–	–	–	–	–	–
O=c1oc2cc(O)ccc2c2oc3cc(O)ccc3c12	> 107 µM	> 125 µM	> 88.7 µM	> 125 µM	114 µM	91.7 µM	> 125 µM	> 125 µM	> 125 µM	> 102 µM	122 µM	70.2 µM	–	–	–	–	–	–	–	–
CC1=C(SCCO)C(=O)c2ccccc2C1=O	28.8 µM	> 100 µM	29.7 µM	27.3 µM	15.3 µM	79.6 µM	3.72 µM	30.1 µM	27.5 µM	24.6 µM	24.9 µM	17.4 µM	–	–	–	–	–	–	–	–
CC(C)C1=CC2=CC[C@@H]3[C@](C)(CCC[C@@]3(C)C(=O)O)[C@H]2CC1	> 100 µM	> 100 µM	> 100 µM	> 100 µM	72.4 µM	> 100 µM	> 84.6 µM	> 100 µM	> 89.3 µM	> 100 µM	> 100 µM	> 80.2 µM	–	–	–	–	–	–	–	–
COc1cc2c3c(n(CCCn4cncn4)c(=O)c2cc1OC)-c1cc2c(cc1C3=O)OCO2	> 100 µM	3.5 µM	> 100 µM	> 48.1 µM	> 100 µM	> 100 µM	38.6 µM	99.1 µM	> 100 µM	> 49.3 µM	19.6 µM	> 100 µM	< 0.01 µM	1.36 µM	31.9 µM	0.935 µM	0.799 µM	> 84.1 µM	0.0572 µM	0.567 µM
C1=CC=C2NCCc3cccc(c3)CCNC3=CC=CC=CC3=NCCCCCCN=C2C=C1	> 100 µM	> 100 µM	> 100 µM	> 100 µM	99 µM	> 100 µM	54 µM	49.9 µM	> 100 µM	26.9 µM	23.5 µM	–	–	–	–	–	–	–	–	–
CCCCC(=O)c1c(O)ccc2c(C)cc(=O)oc12	> 100 µM	> 100 µM	> 100 µM	> 100 µM	> 100 µM	> 100 µM	> 100 µM	> 100 µM	> 100 µM	> 100 µM	> 100 µM	> 100 µM	–	–	–	–	–	–	–	–
CC(=O)OCCCCN1C(=O)CSc2ccccc21	> 100 µM	> 100 µM	> 100 µM	–	> 100 µM	> 100 µM	> 100 µM	> 100 µM	> 100 µM	> 100 µM	> 100 µM	> 100 µM	–	–	–	–	–	–	–	–
O=C1CCCCN1	> 1120 µM	> 1120 µM	> 1120 µM	> 1120 µM	> 1120 µM	> 1120 µM	> 1120 µM	> 1120 µM	> 350 µM	> 1120 µM	> 1120 µM	> 1120 µM	–	–	–	–	–	–	–	–
O=Cc1ccccc1CCn1c(=O)c2cc3c(=O)n(CCc4ccccc4C=O)c(=O)c3cc2c1=O	–	> 100 µM	> 100 µM	> 100 µM	> 100 µM	> 100 µM	–	> 100 µM	–	> 100 µM	> 100 µM	> 100 µM	–	–	–	–	–	–	–	–
